Results published in ChEMBL document CHEMBL2086274, “Synthesis, biological evaluation, and molecular docking of N-{3-[3-(9-methyl-9H-carbazol-3-yl)-acryloyl]-phenyl}-benzamide/amide derivatives as xanthine oxidase and tyrosinase inhibitors” (Bioorg Med Chem, 2012).

Legend:
[1] = target: T1, Tyrosinase (Mus musculus) (UniProt P11344); test: Inhibition of tyrosinase in mouse B16F10 cells assessed as reduction of melanin production at 20 ug/ml after 72 hrs; type: cell-based; settings: B16-F10
T1 sequence (whole entry): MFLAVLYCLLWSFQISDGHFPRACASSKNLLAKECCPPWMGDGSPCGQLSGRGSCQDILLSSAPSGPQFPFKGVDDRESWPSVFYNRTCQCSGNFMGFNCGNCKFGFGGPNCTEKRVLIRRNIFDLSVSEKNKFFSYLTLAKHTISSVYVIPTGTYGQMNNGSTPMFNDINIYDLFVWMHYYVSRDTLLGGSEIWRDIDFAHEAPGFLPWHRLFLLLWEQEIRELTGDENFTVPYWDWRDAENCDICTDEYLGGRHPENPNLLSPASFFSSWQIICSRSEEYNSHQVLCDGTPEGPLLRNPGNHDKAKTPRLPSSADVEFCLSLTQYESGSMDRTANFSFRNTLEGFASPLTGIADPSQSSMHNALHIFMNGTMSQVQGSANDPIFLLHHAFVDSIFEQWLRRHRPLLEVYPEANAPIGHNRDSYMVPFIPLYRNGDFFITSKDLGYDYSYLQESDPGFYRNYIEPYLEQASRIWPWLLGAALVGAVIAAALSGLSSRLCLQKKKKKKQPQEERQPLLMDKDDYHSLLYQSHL

[2] = target: Xanthine dehydrogenase/oxidase (Bos taurus, UniProt P80457)
Chain of Xanthine dehydrogenase/oxidase (P80457 whole entry): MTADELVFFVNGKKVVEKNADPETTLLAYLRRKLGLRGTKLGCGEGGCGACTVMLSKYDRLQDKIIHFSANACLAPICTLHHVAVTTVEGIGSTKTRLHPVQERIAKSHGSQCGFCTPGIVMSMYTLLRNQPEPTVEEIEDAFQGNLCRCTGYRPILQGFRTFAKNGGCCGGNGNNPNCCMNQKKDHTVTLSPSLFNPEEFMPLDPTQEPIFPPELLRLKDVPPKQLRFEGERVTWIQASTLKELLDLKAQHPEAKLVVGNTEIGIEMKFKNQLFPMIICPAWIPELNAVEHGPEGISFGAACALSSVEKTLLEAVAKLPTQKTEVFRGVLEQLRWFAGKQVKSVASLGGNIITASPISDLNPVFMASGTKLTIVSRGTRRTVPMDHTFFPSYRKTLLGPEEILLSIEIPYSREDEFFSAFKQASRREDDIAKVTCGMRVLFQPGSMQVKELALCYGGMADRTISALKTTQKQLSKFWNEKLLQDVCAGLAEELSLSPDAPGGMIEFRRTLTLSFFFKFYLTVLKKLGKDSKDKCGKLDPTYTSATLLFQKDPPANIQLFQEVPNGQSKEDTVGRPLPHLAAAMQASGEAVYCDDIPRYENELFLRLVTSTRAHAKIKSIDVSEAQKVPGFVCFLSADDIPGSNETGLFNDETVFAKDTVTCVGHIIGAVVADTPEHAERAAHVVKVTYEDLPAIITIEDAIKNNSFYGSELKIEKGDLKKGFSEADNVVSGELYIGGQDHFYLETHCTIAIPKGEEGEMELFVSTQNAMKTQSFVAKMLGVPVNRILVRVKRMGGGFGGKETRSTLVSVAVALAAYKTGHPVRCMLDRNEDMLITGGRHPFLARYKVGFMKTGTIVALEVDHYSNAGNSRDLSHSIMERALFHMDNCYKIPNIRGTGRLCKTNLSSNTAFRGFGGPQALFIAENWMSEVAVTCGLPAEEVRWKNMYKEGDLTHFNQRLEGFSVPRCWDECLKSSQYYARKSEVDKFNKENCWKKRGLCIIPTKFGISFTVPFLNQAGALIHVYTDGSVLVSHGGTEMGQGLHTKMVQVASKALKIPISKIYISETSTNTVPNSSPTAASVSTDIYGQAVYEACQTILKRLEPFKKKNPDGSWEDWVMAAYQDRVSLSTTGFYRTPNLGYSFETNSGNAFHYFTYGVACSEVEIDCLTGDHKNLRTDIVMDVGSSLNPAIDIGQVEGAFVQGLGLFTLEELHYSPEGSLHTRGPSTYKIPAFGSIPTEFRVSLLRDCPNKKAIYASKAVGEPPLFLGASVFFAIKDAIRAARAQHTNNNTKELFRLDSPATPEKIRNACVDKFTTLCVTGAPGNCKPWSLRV
Description: Inhibition of bovine milk XO assessed as decrease in uric acid formation after 5 mins by UV-spectrophotometric analysis

[3] = target: T2, Tyrosinase (Agaricus bisporus, UniProt O42713)
T2 sequence (O42713 whole entry): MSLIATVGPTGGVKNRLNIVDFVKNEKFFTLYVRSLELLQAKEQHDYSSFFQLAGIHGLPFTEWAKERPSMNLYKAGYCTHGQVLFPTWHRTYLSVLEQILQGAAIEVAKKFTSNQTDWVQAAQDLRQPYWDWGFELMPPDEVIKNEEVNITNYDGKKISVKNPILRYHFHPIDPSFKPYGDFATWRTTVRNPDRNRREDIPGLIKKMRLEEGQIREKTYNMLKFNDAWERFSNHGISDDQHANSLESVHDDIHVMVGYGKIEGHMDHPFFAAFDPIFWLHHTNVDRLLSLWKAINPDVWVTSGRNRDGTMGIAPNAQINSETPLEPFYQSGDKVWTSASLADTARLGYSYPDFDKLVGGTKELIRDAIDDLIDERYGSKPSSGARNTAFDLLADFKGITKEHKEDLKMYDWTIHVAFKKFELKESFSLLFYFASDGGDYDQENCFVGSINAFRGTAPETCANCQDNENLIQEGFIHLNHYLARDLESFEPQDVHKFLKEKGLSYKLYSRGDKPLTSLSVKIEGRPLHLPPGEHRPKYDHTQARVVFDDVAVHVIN
Description: Inhibition of mushroom tyrosinase using L-DOPA as substrate after 5 mins by UV-spectrophotometric analysis

[4] = target: T2, Tyrosinase; remark: listed apart in the source
Description: Inhibition of mushroom tyrosinase using L-tyrosine as substrate after 5 mins by UV-spectrophotometric analysis

[5] = Cytotoxicity against mouse B16F10 cells assessed as cell viability at 20 ug/ml after 76 hrs by MTT assay; type: cell-based, B16-F10; settings: read-out: Activity
[6] = target: T2, Tyrosinase; test: Competitive inhibition of mushroom tyrosinase using L-DOPA as substrate after 5 mins by Lineweaver-Burk plot analysis

Row | SMILES | inhibition [1] | IC50 [2] | IC50 [3] | IC50 [4] | viability at 76 h, 20 ug/ml [5] | Ki [6]
1 | Cn1c2ccccc2c2cc(/C=C/C(=O)c3cccc(NC(=O)C4CC4)c3)ccc21 | 30% | 4.3 µM | 74.5 µM | 80.2 µM | 79.5% | –
2 | Cn1c2ccccc2c2cc(/C=C/C(=O)c3cccc(NC(=O)c4ccco4)c3)ccc21 | 10.7% | > 100 µM | 60.3 µM | 46.5 µM | 86.6% | –
3 | Cn1c2ccccc2c2cc(/C=C/C(=O)c3cccc(NC(=O)c4cccc(Cl)c4)c3)ccc21 | 29.4% | 4.4 µM | 56.5 µM | 48.1 µM | 80.5% | –
4 | Cn1c2ccccc2c2cc(/C=C/C(=O)c3cccc(NC(=O)c4cccs4)c3)ccc21 | 12.8% | > 100 µM | 71.9 µM | 62.4 µM | 82.1% | –
5 | CC(=O)Nc1cccc(C(=O)/C=C/c2ccc3c(c2)c2ccccc2n3C)c1 | 15.6% | > 100 µM | 77.5 µM | 80.2 µM | 80.6% | –
6 | Cn1c2ccccc2c2cc(/C=C/C(=O)c3cccc(NC(=O)c4ccccc4)c3)ccc21 | 42.5% | 42.7 µM | 15.1 µM | 14 µM | 86.7% | 11.8 µM
7 | Cn1c2ccccc2c2cc(/C=C/C(=O)c3cccc(N)c3)ccc21 | 20.1% | 48.5 µM | 50.5 µM | 48.2 µM | 76.4% | –
8 | Cn1c2ccccc2c2cc(/C=C/C(=O)c3cccc(NC(=O)c4ccc(F)cc4)c3)ccc21 | 24% | 25.8 µM | 16.5 µM | 15.1 µM | 88.7% | –
9 | Cn1c2ccccc2c2cc(/C=C/C(=O)c3cccc(NC(=O)c4cccc(Br)c4)c3)ccc21 | 10.2% | 88.2 µM | > 100 µM | > 100 µM | 78.9% | –
10 | Cn1c2ccccc2c2cc(/C=C/C(=O)c3cccc(NC(=O)c4ccc(C(C)(C)C)cc4)c3)ccc21 | 11.6% | 57.1 µM | > 100 µM | > 100 µM | 84% | –
11 | Cn1c2ccccc2c2cc(/C=C/C(=O)c3cccc(NC(=O)/C=C/c4ccccc4)c3)ccc21 | 15.9% | 5.1 µM | 78.2 µM | 85.2 µM | 81% | –
12 | Cn1c2ccccc2c2cc(/C=C/C(=O)c3cccc(NC(=O)c4ccccc4Cl)c3)ccc21 | 9.7% | 30.3 µM | > 100 µM | > 100 µM | 72% | –
13 | Cn1c2ccccc2c2cc(/C=C/C(=O)c3cccc(NC(=O)c4ccc(Cl)cc4)c3)ccc21 | 36.1% | 5.6 µM | 15.1 µM | 17.5 µM | 81.1% | –
14 | Cn1c2ccccc2c2cc(/C=C/C(=O)c3cccc(NC(=O)c4cccc(C(F)(F)F)c4)c3)ccc21 | 30.1% | 5.1 µM | 75 µM | 65.2 µM | 80.1% | –
15 | Cn1c2ccccc2c2cc(/C=C/C(=O)c3cccc(NC(=O)c4cccc(F)c4)c3)ccc21 | 20.6% | 4.5 µM | 42 µM | 35.2 µM | 83.9% | –
16 | Cc1ccccc1C(=O)Nc1cccc(C(=O)/C=C/c2ccc3c(c2)c2ccccc2n3C)c1 | 8.1% | > 100 µM | > 100 µM | > 100 µM | 60.9% | –
17 | Cc1cccc(C(=O)Nc2cccc(C(=O)/C=C/c3ccc4c(c3)c3ccccc3n4C)c2)c1 | 21.7% | 20.7 µM | 29.3 µM | 35.2 µM | 83.6% | –
18 | Cn1c2ccccc2c2cc(/C=C/C(=O)c3cccc(NC(=O)c4ccccc4F)c3)ccc21 | 40.5% | 79.5 µM | 15.2 µM | 18.2 µM | 84.5% | –
19 | Cc1ccc(C(=O)Nc2cccc(C(=O)/C=C/c3ccc4c(c3)c3ccccc3n4C)c2)cc1 | 25.4% | 5.3 µM | 15.2 µM | 15.1 µM | 82.7% | –
